Experimental data published in US7402314B2, “In vivo activation of tumor-specific cytotoxic T cells” (The Scripps Research Institute, priority 1995, dated 2008).
Where “and” joins values, the source holds several entries; their conditions need not be identical. Equal entries are not always repeated.

What was measured:
A2.1/K^b-Tg mice = test: Peptide priming of A2.1/K^b-Tg mice, lytic activity of peptide-specific CTL; assay type: in vivo; design: Lytic Activity by Peptide-Specific CTL After Priming of A2.1/K^b-Tg Mice [Specific ^51Cr release (%)]: concentration or dose not given beside the values; conditions: for Lytic Activity by Peptide-Specific CTL After Priming of A2.1/K^b-Tg Mice [Specific ^51Cr release (%)]: E:T ratio of 60:1, peptide-pulsed T2A2/K^b targets, highest of at least three individual mice; for A2.1/K^b-restricted peptide-specific CTL response of A2.1/K^b-Tg mice (in words): mouse, in vivo
HLA-A2.1 = HLA-A2.1 (Homo sapiens, UniProt P04439, D140Y/D185E/D98H/E176V/E277Q/G131W/G231S/I119V/I121R/I166T/I218V/L300P/L318F/N151K/N90K/P208A/P217A/Q86G/Q94H/R138H/R169H/T345S); test: Competition assay of peptide binding to HLA-A2.1 (inhibition of M1 58-66 binding, clone 12 lysis of EA2 targets)
CASKI = test: Cytotoxicity assay, killing of tumors (Table 7); assay type: cell-based, human
Method: (§1) One hundred and six (106) target cells were incubated at 37° C. with […] of sodium ^51Cr chromate for 90 minutes in the presence or absence of specific peptide. Cells were washed three times and resuspended in 5% RPMI. For the assay, 104 ^51Cr-labeled target cells were incubated with different concentrations of effector cells in a final volume of […] in U-bottomed 96-well plates. Supernatants were removed after 4-7 hrs at 37° C., and the percent specific lysis was determined by the following formula: […]
(§2) Tumor cells were preincubated for 24 hours prior to the assay in media supplemented with γ-interferon (γ-IFN, 20 ng/ml) plus tumor necrosis factor-α (TNF-α, 3 ng/ml). It is known that such pretreatment of tumor cells increases the expression of MHC I and adhesion molecules such as ICAM I on the surface of the cell thus enhancing their sensitivity to lysis by CTL. (See, e.g., Fisk, et al., Lympho. & Cylokine Res. 13: 125-131 (1994); Fady, et al., Cancer Immunol. Immunother. 37: 329-336 (1993).)

Hep-G2 = test: Cytotoxicity assay, killing of tumors (Table 7); assay type: cell-based, human
Method: as §1, §2

JY = test: Cytotoxicity assay, killing of tumors (Table 7); assay type: cell-based, human
Method: as §1, §2

LG-2 = test: Cytotoxicity assay, killing of tumors (Table 7); assay type: cell-based, human
Method: as §1, §2

MALME-3M = test: Cytotoxicity assay, killing of tumors (Table 7); assay type: cell-based, human
Method: as §1, §2

MCF-7 = test: Cytotoxicity assay, killing of tumors (Table 7); assay type: cell-based, human
Method: as §1, §2

MDA.MB435 = test: Cytotoxicity assay, killing of tumors (Table 7); assay type: cell-based, human
Method: as §1, §2

OVCAR-5 = test: Cytotoxicity assay, killing of tumors (Table 7); assay type: cell-based, human
Method: as §1, §2

SAOS.175 = test: Cytotoxicity assay, killing of tumors (Table 7); assay type: cell-based, human
Method: as §1, §2

SKMEL-5 = test: Cytotoxicity assay, killing of tumors (Table 7); assay type: cell-based, human
Method: as §1, §2

ST486 = test: Cytotoxicity assay, killing of tumors (Table 7); assay type: cell-based, human
Method: as §1, §2

SV80 = test: Cytotoxicity assay, killing of tumors (Table 7); assay type: cell-based, human
Method: as §1, §2

SW480 = test: Cytotoxicity assay, killing of tumors (Table 7); assay type: cell-based, human
Method: as §1, §2

T98G = test: Cytotoxicity assay, killing of tumors (Table 7); assay type: cell-based, human
Method: as §1, §2

U2-OS = test: Cytotoxicity assay, killing of tumors (Table 7); assay type: cell-based, human
Method: as §1, §2

U87G = test: Cytotoxicity assay, killing of tumors (Table 7); assay type: cell-based, human
Method: as §1, §2

Saos-2/175 = test: 5-hour ^51Cr release assay, endogenously synthesized p53 epitopes (Example 4); assay type: cell-based, human; conditions: relative to p53-deficient Saos-2

Sequence	Lytic Activity by Peptide-Specific CTL After Priming of A2.1/K^b-Tg Mice [Specific ^51Cr release (%)] (A2.1/K^b-Tg mice)	A2.1/K^b-restricted peptide-specific CTL response of A2.1/K^b-Tg mice (in words) (A2.1/K^b-Tg mice)	other results
AAPPVAPA [hu-wt-p53 69-76]	0%		
AAPPVAPAPA [hu-wt-p53 69-78]	0%		
AAPPVAPAPAA [hu-wt-p53 69-79]	0%		
AAPTPAAPA [hu-wt-p53 78-86]	0%		
ALNKMFCQL	0%		
DLMLSPDDI [hu-wt-p53 42-50]	0%		
GLAPPQHLI [hu-wt-p53 187-195]	1%	lack of CTL responsiveness	A2.1-binding activity / affinity for the presenting MHC class I molecule (in words) (HLA-A2.1): high
ILKEPVHGV [HIV-1 RT 476-484, reference compound]		could mount an A2.1/K^b-restricted CTL response	
ITLEDSSGNL [hu-wt-p53 255-264]	3%	lack of CTL responsiveness	A2.1-binding activity / affinity for the presenting MHC class I molecule (in words) (HLA-A2.1): intermediate
KLVGKLNWA [HIV-9K, reference compound]			Killing of Tumors Expressing Her-2/neu (percent specific lysis) (CASKI): 8% and 11%; Killing of Tumors Expressing Her-2/neu (percent specific lysis) (Hep-G2): 1% and 8%; Killing of Tumors Expressing Her-2/neu (percent specific lysis) (JY): 2% and 1%; Killing of Tumors Expressing Her-2/neu (percent specific lysis) (LG-2): 1%; Killing of Tumors Expressing Her-2/neu (percent specific lysis) (MALME-3M): 2% and 1%; Killing of Tumors Expressing Her-2/neu (percent specific lysis) (MCF-7): 3% and 7%; Killing of Tumors Expressing Her-2/neu (percent specific lysis) (MDA.MB435): 4% and 3%; Killing of Tumors Expressing Her-2/neu (percent specific lysis) (OVCAR-5): 10% and 12%; Killing of Tumors Expressing Her-2/neu (percent specific lysis) (SAOS.175): 18% and 11%; Killing of Tumors Expressing Her-2/neu (percent specific lysis) (SKMEL-5): 5% and 4%; Killing of Tumors Expressing Her-2/neu (percent specific lysis) (ST486): 1%; Killing of Tumors Expressing Her-2/neu (percent specific lysis) (SV80): 2%; Killing of Tumors Expressing Her-2/neu (percent specific lysis) (SW480): 1% and 4%; Killing of Tumors Expressing Her-2/neu (percent specific lysis) (T98G): 9% and 13%; Killing of Tumors Expressing Her-2/neu (percent specific lysis) (U2-OS): 18% and 24%; Killing of Tumors Expressing Her-2/neu (percent specific lysis) (U87G): 5% and 1%
LLGRDSFEV [mur-wt-p53 261-269, reference compound]	10%	No significant response	A2.1-binding activity / affinity for the presenting MHC class I molecule (in words) (HLA-A2.1): highest A2.1-binding activity of all p53 peptides tested
LLGRNSFEV	94%	detectable	
LLPENNVLS [hu-wt-p53 25-33]	3%		
LLPENNVLSPL [hu-wt-p53 25-35]	47%	detectable	A2.1-binding activity / affinity for the presenting MHC class I molecule (in words) (HLA-A2.1): high affinity; recognition of Saos-2/175 by CTL from A2.1/K^b-Tg mice specific for the peptide (endogenous processing and presentation) (Saos-2/175): did not lyse Saos-2/175
LMLSPDDIEQ [hu-wt-p53 43-52]	3%		
NLLGRNSFEV [hu-wt-p53 263-272]	3%		
NTFRHSVVV [hu-wt-p53 210-218]	6%		
PLDGEYFTL [hu-wt-p53 322-330]	0%	lack of CTL responsiveness	A2.1-binding activity / affinity for the presenting MHC class I molecule (in words) (HLA-A2.1): intermediate
RMPEAAPPV [hu-wt-p53 65-73]	85%	detectable	A2.1-binding activity / affinity for the presenting MHC class I molecule (in words) (HLA-A2.1): high affinity; recognition of Saos-2/175 by CTL from A2.1/K^b-Tg mice specific for the peptide (endogenous processing and presentation) (Saos-2/175): did not lyse Saos-2/175
SVTCTYSPA [hu-wt-p53 121-129]			A2.1-binding: inhibition of A2.1-binding of M1 (58-66) (%) (HLA-A2.1): 8%
VAPAPAAPT [hu-wt-p53 73-81]	0%		
VLSPLPSQA [hu-wt-p53 31-39]	3%		
VLSPLPSQAM [hu-wt-p53 31-40]	0%		
